This is an account of results in US8088804B2, “N-hydroxyamide derivatives possessing antibacterial activity” (Pfizer Inc., priority 2005, dated 2012).

One test has as its system E. coli tolC. Nature of the test: Susceptibility testing (MIC, CLSI microdilution). Format: cell-based, Escherichia coli. As to conditions: 20 h at 35° C., unit assumed. The procedure: (§1) Compounds were tested following the microdilution method of CLSI (Clinical and Laboratory Standards Institute. Methods for dilution antimicrobial susceptibility tests for bacteria that grow aerobically; Approved standard—sixth edition. CLSI document M7-A5, CLSI, Wayne, Pa. 2003). Assays were performed in sterile plastic 96-well microtiter trays with round bottom wells (Greiner).
(§2) Stock solutions of test compounds and control antibiotics were prepared at 10 mg/ml in DMSO. Serial 2-fold dilutions of each drug were performed in a microtiter plate across each row using DMSO as solvent at 100-fold the desired final concentration. Wells in columns #1-11 contain drug and column #12 was kept as a growth control for the organism with no drug. Each well in the mother plate was diluted with sterile deionized water and DMSO, mixed, and volumes of 10 μl distributed to each well in the resulting assay plates.
(§3) Stock cultures were prepared using the Microbank™ method (Pro-Lab Diagnostics) and stored at −80° C. To propagate each strain, one bead was removed from the frozen vial and aseptically streaked onto Trypticase Soy Agar (Difco) which were incubated at 35° C. Standardized inocula were prepared using the direct colony suspension method according to CLSI guidelines (Clinical and Laboratory Standards Institute. Methods for dilution antimicrobial susceptibility tests for bacteria that grow aerobically; Approved standard—sixth edition. CLSI document M7-A5, CLSI, Wayne, Pa., 2003). Isolated colonies were selected from an 18-24 hr agar plate and resuspended in 0.9% sterile saline to match a 0.5 McFarland turbidity standard using a calorimeter (Vitek) at 80% of transmitance. The suspension was used within 15 minutes of preparation.
(§4) Mueller-Hinton Broth (MHB) (Difco) was prepared at a 1.1× concentration and supplemented with Ca++ and Mg++ as recommended by CLSI. For each organism, the standardized suspension was diluted 1:180 into appropriate growth medium in a sterile reservoir. After mixing, wells in the drug-containing assay plates were inoculated with a volume of 90 μl. Thus, for each minimum inhibitory concentration (MIC) determination, each well contains a final volume of 100 μl with an inoculum size of approximately 5×10^5 colony forming units (cfu)/ml and no more than 1% DMSO.
(§5) The completed microtiter plates were incubated 20 h at 35° C. in ambient air. Optical density of each well was determined at 600 nm using a VersaMax Microplate reader (Molecular Devices, Sunnyvale, Calif.). The MIC was defined as the lowest drug concentration causing complete suppression of visible bacterial growth.
Background: Dilution methods test growth across graded concentrations, often in twofold steps.

For the next test, the system named is E. coli (2). Nature of the test: Susceptibility testing (MIC, CLSI microdilution). Format: cell-based, Escherichia coli. As to conditions: 20 h at 35° C., in µg/mL (unit assumed). Here is the method: as §1, §2, §3, §4, §5
The test system of a further test is H. influen. Nature of the test: Susceptibility testing (MIC, CLSI microdilution). Format: cell-based, Haemophilus influenzae. The following applies: 20 h at 35° C., unit assumed. The procedure:
as §1, §2, §3, §4, §5

The test system of a further test is K. pneu. Nature of the test: Susceptibility testing (MIC, CLSI microdilution). Format: cell-based, Klebsiella pneumoniae. The following applies: 20 h at 35° C., unit assumed. Here is the method:
as §1, §2, §3, §4, §5

For a further test, the target named is P. ae LpxC enzyme (Pseudomonas aeruginosa, UniProt P47205). Nature of the test: Enzyme inhibition testing (fluorescamine assay). Format: biochemical. The following applies: for inhibition at 0.5 µg/mL: @0.5 μg/ml; for inhibition at 10 µg/mL: @10 μg/ml. Here is the method:
Compounds were tested based on a published method (Wang W., 2001, Anal Biochem, 290, 338-46) with modifications. Enzyme assays were performed in the assay buffer (50 mM HEPES, pH8, 0.005% Brij, 50 μM ZnSO4, 1 mg/ml BSA) in 96-well V-bottom microtiter plates.
Stock solutions of test compounds and control antibiotics are prepared at 10 mg/ml in DMSO and are diluted in the assay buffer to 6-fold the final testing concentration. 5 μl compound dilution is distributed to the well of the assay plate. EDTA is used as positive control and the final concentration in assay is 12.5 mM.
P. ae LpxC enzyme dilution in the assay buffer is added to the compound in plate and pre-incubated with the compound at room temperature for 10 min. LpxC substrate is added to initiate the enzyme reaction and the final enzyme and substrate concentrations are 1.2 μM and 0.4 mM, respectively. The reaction continues at RT for 4 hrs before diluted with 45 μl of Borate buffer (0.4 M, pH9), followed by addition of 40 μl derivatization reagent (fluorescamine 2 mg/ml DMF). This mixture is incubated at RT for 10 min followed by addition of 150 μl DMF/H2O (1:1). The resulting solution is loaded onto Millipore filter unit (Microcon 10 k MWCO) and spun at 13 k rpm on bench top centrifuge for 15 min. 100 μl of this filtrate is transferred to a low fluorescence clear-bottom 96-well plate (Corning) and the fluorescence is detected at ex360 nm and em465 nm on a Tecan fluorescence plate reader. The percent inhibition is calculated based on EDTA produces 100% inhibition and negative control produces 100% activity.

The test system of a further test is P. aerug. Hypersuc. Nature of the test: Susceptibility testing (MIC, CLSI microdilution). It counts as cell-based, Pseudomonas aeruginosa. As to conditions: 20 h at 35° C., Δ efflux, hypersusceptible strain, unit assumed. The procedure: as §1, §2, §3, §4, §5
The next test deals with P. aerug. (2). Nature of the test: Susceptibility testing (MIC, CLSI microdilution). It counts as cell-based, Pseudomonas aeruginosa. The following applies: 20 h at 35° C., in µg/mL (unit assumed). The procedure:
as §1, §2, §3, §4, §5

Setting [1] is: read-out: ENZYME (percent inhibition).

Converted amounts (≈) assume the structure as drawn. Read-outs that look alike come from different tables or passages of the source.

P. ae LpxC enzyme, sequence (P47205 whole entry): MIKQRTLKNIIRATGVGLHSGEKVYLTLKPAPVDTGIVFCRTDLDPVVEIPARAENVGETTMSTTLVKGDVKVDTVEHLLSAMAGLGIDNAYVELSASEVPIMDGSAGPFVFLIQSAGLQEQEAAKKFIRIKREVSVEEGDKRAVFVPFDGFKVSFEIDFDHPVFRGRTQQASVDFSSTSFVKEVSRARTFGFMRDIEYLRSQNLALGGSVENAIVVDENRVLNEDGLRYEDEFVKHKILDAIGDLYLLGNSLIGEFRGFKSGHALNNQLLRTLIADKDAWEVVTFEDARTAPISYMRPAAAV

The compound `CCCc1ccc(-c2ccc(C(=O)NC(C(=O)NO)C(F)(F)F)cc2)cc1` (racemic) [Compound 20, DL-4′-Propyl-biphenyl-4-carboxylic acid (2,2,2-trifluoro-1-hydroxycarbamoyl-ethyl)-amide] gave an MIC E. coli tolC against E. coli tolC of 0.25 µg/mL (≈ 0.657 µM). For the same compound, in the test with E. coli (2), the “MIC E. coli (2)” value is given as 0.5. The compound also came in with an MIC H. influen. against H. influen. of 0.25 µg/mL (≈ 0.657 µM). The compound further had an MIC K. pneu. in the test on K. pneu. of 0.5 µg/mL (≈ 1.31 µM). Further, at P. ae LpxC enzyme (@0.1 μg/ml, read-out: ENZYME (percent inhibition)), the inhibition at 0.1 µg/mL was under 10%. The compound further had an MIC P. aerug. Hypersuc against P. aerug. Hypersuc of 1 µg/mL (≈ 2.63 µM). Besides, the “MIC P. aerug. (2)” value against P. aerug. (2) was found to be 16.

In the test on E. coli tolC, `CCCc1ccc(-c2ccc(C(=O)NC(CF)C(=O)NO)cc2)cc1` (racemic) [Compound 21, DL-4′-Propyl-biphenyl-4-carboxylic acid (2-fluoro-1-hydroxycarbamoyl-ethyl)-amide] had an MIC E. coli tolC of 4 µg/mL (≈ 11.6 µM). Besides, the “MIC E. coli (2)” value in the test with E. coli (2) is reported as 16-32. This compound returned an MIC H. influen. against H. influen. of 8 µg/mL (≈ 23.2 µM). Further, the MIC K. pneu. with K. pneu. is 8 µg/mL (≈ 23.2 µM). Moreover, at P. ae LpxC enzyme (setting [1]), the inhibition at 0.5 µg/mL amounted to 77%. Besides, the MIC P. aerug. Hypersuc in the test with P. aerug. Hypersuc turned out to be 16 µg/mL (≈ 46.5 µM). In the test on P. aerug. (2), the “MIC P. aerug. (2)” value is reported as over 64.

For `CCCc1ccc(-c2ccc(C(=O)N3CS(=O)(=O)CC3C(=O)NO)cc2)cc1` (stereo in doubt) [Compound 17, (S)-N-Hydroxy-3-(4′-propylbiphenylcarbonyl)thiazolidine-sulfone-4-carboxamide], the MIC E. coli tolC with E. coli tolC was found to be 8 µg/mL (≈ 19.9 µM). In the test on H. influen., this compound came in with an MIC H. influen. of over 64 µg/mL. For the same compound, the MIC K. pneu. against K. pneu. is 16 µg/mL (≈ 39.8 µM). At P. ae LpxC enzyme (setting [1]), the inhibition at 0.5 µg/mL was determined as 98%. For the same compound, the MIC P. aerug. Hypersuc in the test on P. aerug. Hypersuc amounted to 2 µg/mL (≈ 4.97 µM). Also, in the test on P. aerug. (2), the “MIC P. aerug. (2)” value is on record as 16.

`CCCc1ccc(-c2ccc(C(=O)N3CC[C@H](N)[C@H]3C(=O)NO)cc2)cc1` [Compound 2] registered an MIC E. coli tolC in the test with E. coli tolC of 32 µg/mL (≈ 87.1 µM). Moreover, in the test on E. coli (2), the “MIC E. coli (2)” value stood at 64. In addition, the MIC H. influen. with H. influen. is 16 µg/mL (≈ 43.5 µM). The compound also returned an MIC K. pneu. against K. pneu. of 64 µg/mL (≈ 174 µM). Moreover, at P. ae LpxC enzyme (setting [1]), the inhibition at 0.5 µg/mL worked out at 65%. Moreover, the MIC P. aerug. Hypersuc against P. aerug. Hypersuc is 64 µg/mL (≈ 174 µM).

In the test on E. coli tolC, `CCCc1ccc(-c2ccc(C(=O)N3CC[C@H](OC)[C@H]3C(=O)NO)cc2)cc1` [Compound 7] returned an MIC E. coli tolC of 64 µg/mL (≈ 167 µM). In the test with H. influen., this compound yielded an MIC H. influen. of over 64 µg/mL. For the same compound, the MIC K. pneu. in the test on K. pneu. was 64 µg/mL (≈ 167 µM). For the same compound, the inhibition at 10 µg/mL at P. ae LpxC enzyme (setting [1]) came out at 84%. Besides, the MIC P. aerug. Hypersuc in the test with P. aerug. Hypersuc amounted to 64 µg/mL (≈ 167 µM). Further, the “MIC P. aerug. (2)” value against P. aerug. (2) is over 64.

Consider `CCCc1ccc(-c2ccc(C(=O)N3C[C@H](N)[C@@H](O)[C@H]3C(=O)NO)cc2)cc1` [Compound 12], for which, in the test on E. coli tolC, the MIC E. coli tolC was over 64 µg/mL. The “MIC E. coli (2)” value against E. coli (2) is over 64. In the test with H. influen., this compound yielded an MIC H. influen. of 32 µg/mL (≈ 83.5 µM). Besides, the MIC K. pneu. against K. pneu. was over 64 µg/mL. The inhibition at 0.5 µg/mL on P. ae LpxC enzyme (setting [1]) is 95%. In addition, in the test on P. aerug. Hypersuc, the MIC P. aerug. Hypersuc amounted to 8 µg/mL (≈ 20.9 µM).

For `O=C(NO)c1cocc1C(=O)Nc1cccc(SC(F)(F)F)c1` [Compound 32], the MIC E. coli tolC against E. coli tolC turned out to be 64 µg/mL (≈ 185 µM). The same compound had an MIC H. influen. in the test with H. influen. of over 64 µg/mL. The MIC K. pneu. with K. pneu. was over 64 µg/mL. For the same compound, the inhibition at 10 µg/mL on P. ae LpxC enzyme (setting [1]) is under 10%. This compound returned an MIC P. aerug. Hypersuc with P. aerug. Hypersuc of over 64 µg/mL. For the same compound, in the test on P. aerug. (2), the “MIC P. aerug. (2)” value is over 64.

Compound `O=C(NO)[C@H]1N(C(=O)c2ccc(-c3cc(F)cc(F)c3)cc2)CCS1(=O)=O` [Compound 36, (S)-3-(3′,5′-Difluorobiphenylcarbonyl)-N-hydroxythiazolidinesulfone-2-carboxamide] returned an MIC E. coli tolC against E. coli tolC of 0.125 µg/mL (≈ 0.315 µM). Moreover, the “MIC E. coli (2)” value against E. coli (2) is reported as over 64. The MIC H. influen. against H. influen. is over 64 µg/mL. The MIC K. pneu. in the test on K. pneu. was over 64 µg/mL. Further, the inhibition at 0.1 µg/mL at P. ae LpxC enzyme (read-out: ENZYME (percent inhibition), @0.1 μg/ml) was 8%. Moreover, the MIC P. aerug. Hypersuc with P. aerug. Hypersuc was found to be 8 µg/mL (≈ 20.2 µM).

Consider `CCCc1ccc(-c2ccc(C(=O)N3CC[C@@H](O)[C@H]3C(=O)NO)cc2)cc1` [Compound 39], for which, in the test on E. coli tolC, the MIC E. coli tolC turned out to be 64 µg/mL (≈ 174 µM). In addition, the “MIC E. coli (2)” value against E. coli (2) is recorded as over 64. This compound also displayed an MIC H. influen. against H. influen. of over 64 µg/mL. In the test on K. pneu., this compound displayed an MIC K. pneu. of over 64 µg/mL. Further, the inhibition at 1 µg/mL on P. ae LpxC enzyme (@1 μg/ml, read-out: ENZYME (percent inhibition)) was 95.2%. The compound also showed an MIC P. aerug. Hypersuc with P. aerug. Hypersuc of 4 µg/mL (≈ 10.9 µM).
